From patent US11505548B2, “Heterocyclic compounds and their use for treatment of helminthic infections and diseases” (Celgene Corporation, priority 2019, dated 2022)
Where two headings read alike, the source gives them in different places.

Key:
[1] = tested on: Onchocerca gutturosa Adult Male Worms; experiment: Onchocerciasis in vitro screening model, worm motility score; format: cell-based; settings: read-out: O. gutturosa activity level (IC50 or MED)
B. pahangi adult worms = experiment: Parasite motility assay, adult B. pahangi; format: cell-based, Brugia pahangi; settings: in vitro motility, active at compound concentrations below 1 μM
Method: Parasite Motility Assays. Adult and microfilariae B. malayi and B. pahangi parasites, harvested from infected jirds, were procured from the NIAID/NIH Filariasis Research Reagent Resource Center (FR3). […] (Athens, Ga.). Adult worms were plated in 24-well plates with 2 mL of Advanced RPMI 1640 medium (Invitrogen) supplemented with 25 mM HEPES, 2 mM L-Glutamine (Invitrogen), 100 U/mL Penicillin (Invitrogen), 100 µg/mL Streptomycin (Invitrogen), […] Amphotericin B solution (Invitrogen), and 5% heat inactivated fetal bovine serum and placed in a 37° C. humidified incubator with 5% CO2. After 24 h, adult worms were selected based upon motility as described below. After scoring for motility, 4-6 highly motile worms were selected for each treatment group and were transferred to new plates. Microfilariae were centrifuged at 5000×g for 5 min, and re-suspended in 2 ml of media. Microfilarial density was determined using a hemocytometer and were plated in a 96-well plate at 80 microfilariae/well with 200 μL of complete media. Treatment groups received compounds (0.1% DMSO) at 1 μM and 100 nM with 0.1% DMSO as a vehicle control. Cultures were incubated at 37° C. in a humidified incubator with 5% CO2. […] The motility of the worms and microfilariae were evaluated every 24 h and analyzed by a one sided unpaired Student's t-test using Microsoft Excel. […]

[2] = tested on: L. sigmodontis microfilariae; experiment: Parasite motility assay, L. sigmodontis microfilariae; format: cell-based, Litomosoides sigmodontis; settings: in vitro motility, active at compound concentrations below 1 μM
[3] = tested on: L. sigmodontis adult worms; experiment: Parasite motility assay, adult L. sigmodontis; format: cell-based, Litomosoides sigmodontis; settings: in vitro motility, active at compound concentrations below 1 μM
[4] = in vitro, Onchocerca gutturosa adult male worms, class A/B/C
[5] = Onchocerca gutturosa, Table 1 O. gutturosa, levels A/B/C, motility or MTT readout not specified

Compound	IC50 [1, 4] [nM]	IC50 [1, 5] [nM]	also measured
2-(3-(5-isoprop- oxypyridin-2- yl)-1,2,4- thiadiazol-5- ylamino)-N,N- dimethyl-5- (trifluoromethyl) nicotinamide [Compound 250]	500 to 5000		B. pahangi activity against adult filaria (level E) (B. pahangi adult worms): E (activity against adult filaria at compound concentrations below 1 μM (activity level E)); L. sigmodontis activity against microfilaria (level D) [2]: D (activity against microfilaria at compound concentrations below 1 μM (activity level D)); L. sigmodontis activity against adult filaria (level E) [3]: E (activity against adult filaria at compound concentrations below 1 μM (activity level E))
CNc1cccnc1Nc1nc(-c2ccc(OC3CCN(C)CC3)cn2)ns1 [Compound 53, N3-methyl-N2-(3-(5-(1-methyl-piperidin-4-yloxy)pyridin-2-yl)-1,2,4-thiadiazol-5-yl) pyridine-2,3-diamine]		200 to 500	
COc1cnc(-c2nsc(Nc3ncccc3C)n2)cn1 [Compound 125, 3-(5-methoxy-pyrazin-2-yl)-N-(3-methyl-pyridin-2-yl)-1,2,4-thiadiazol-5-amine]		500 to 5000	
CC(C)c1cnc(Nc2nc(-c3cc4c(cn3)OC(C)(C)C4)ns2)cc1C(F)(F)F [Compound 296, 3-(2,2-dimethyl-2,3-dihydrofuro[2,3-c]pyridin-5-yl)-N-(5-isopropyl-4-(trifluoromethyl)pyridin-2-yl)-1,2,4-thiadiazol-5-amine]	< 200		
COc1cccnc1Nc1nc(-c2ccc(OC(C)C)cn2)ns1 [Compound 81, 3-(5-isopropoxy-pyridin-2-yl)-N-(3-methoxy-pyridin-2-yl)-1,2,4-thiadiazol-5-amine]		< 200	
CC(=O)N(C)c1cccnc1Nc1nc(-c2ccc(OC3CCOCC3)cn2)ns1 [Compound 199, N-methyl-N-(2-(3-(5-(tetrahydro-2H-pyran-4-yloxy)pyridin-2-yl)-1,2,4-thiadiazol-5-ylamino)pyridin-3-yl)acetamide]	500 to 5000		
Cc1cccnc1-c1noc(Nc2ccc(N3CCCC3)cn2)n1 [Compound 42, 3-(3-methyl-pyridin-2-yl)-N-(5-(pyrrolidin-1-yl)pyridin-2-yl)-1,2,4-oxadiazol-5-amine]		< 200	
CC(C)Oc1ccnc(-c2nsc(Nc3ncccc3S(=O)(=O)N(C)C)n2)c1 [Compound 308, 2-(3-(4-isoprop-oxypyridin-2-yl)-1,2,4-thiadiazol-5-ylamino)-N,N-dimethyl-pyridine-3-sulfonamide]	< 200		
CC(C)c1cnc(Nc2nc(-c3cc(OC4CC4)ccn3)ns2)cc1C(F)(F)F [Compound 96, 3-(4-cycloprop-oxypyridin-2-yl)-N-(5-isopropyl-4-(trifluoromethyl)pyridin-2-yl)-1,2,4-thiadiazol-5-amine]		< 200	
O=C(CC(F)(F)F)N1CCN(c2ccc(Nc3nc(-c4ccc(OC5CC5)cn4)ns3)nc2)CC1 [Compound 113, 1-(4-(6-(3-(5-cycloprop-oxypyridin-2-yl)-1,2,4-thiadiazol-5-ylamino)pyridin-3-yl)piperazin-1-yl)-3,3,3-trifluoro-propan-1-one]		500 to 5000	
CC(=O)N(C)c1cccnc1Nc1nc(-c2cc3c(cn2)N(C(C)C)CC3)ns1 [Compound 206, N-(2-(3-(1-isopropyl-2,3-dihydro-1H-pyrrolo[2,3-c]pyridin-5-yl)-1,2,4-thiadiazol-5-ylamino)pyridin-3-yl)-N-methylacetamide]	500 to 5000		
Cc1cccnc1Nc1nc(-c2ncc(OC(C)C)cn2)ns1 [Compound 315, 3-(5-isopropoxy-pyrimidin-2-yl)-N-(3-methylpyridin-2-yl)-1,2,4-thiadiazol-5-amine]	500 to 5000		
c1ccc(-c2ccnc(Nc3nnc(-c4ccccn4)[nH]3)c2)cc1 [Compound 241, 4-phenyl-N-(5-(pyridin-2-yl)-4H-1,2,4-triazol-3-yl) pyridin-2-amine]	< 200		
COc1cnc(Nc2nc(-c3cc(C(=O)N(C)C)c(OC(C)C)cn3)ns2)c(C(F)(F)F)c1 [Compound 264, 5-isopropoxy-2-(5-(5-methoxy-3-(trifluoro-methyl)pyridin-2-ylamino)-1,2,4-thiadiazol-3-yl)-N,N-dimethyliso-nicotinamide]	500 to 5000		
Cc1cccnc1Nc1nc(-c2ccc(C(=O)N3CCN(C)CC3)cn2)ns1 [Compound 57, (4-methyl-piperazin-1-yl)(6-(5-(3-methyl-pyridin-2-ylamino)-1,2,4-thiadiazol-3-yl)pyridin-3-yl) methanone]		500 to 5000	
c1ccc(-c2nsc(Nc3ccc(N4CCNCC4)cn3)n2)nc1 [Cmpd 4, N-(5-(piperazin-1-yl)pyridin-2-yl)-3-(pyridin-2-yl)-1,2,4-thiadiazol-5-amine]		500 to 5000	

Compound	IC50 [1, 4] [nM]	IC50 [1, 5] [nM]	also measured
Cc1cccnc1Nc1nc(-c2ccc(C#N)cn2)ns1 [Compound 278, 6-(5-(3-methylpyridin-2-ylamino)-1,2,4-thiadiazol-3-yl)nicotinonitrile]	500 to 5000		
CC(=O)N(C)c1cccnc1Nc1nc(-c2cc(C(C)C)c(C)cn2)ns1 [Compound 223, N-(2-(3-(4-isopropyl-5-methylpyridin-2-yl)-1,2,4-thiadiazol-5-ylamino)pyridin-3-yl)-N-methyl-acetamide]	200 to 500		
COc1ccc(-c2nsc(Nc3ccc(C(C)C)cn3)n2)nc1 [Compound 185, N-(5-isopropyl-pyridin-2-yl)-3-(5-methoxy-pyridin-2-yl)-1,2,4-thiadiazol-5-amine]		200 to 500	
CC(C)Oc1ccc(-c2nsc(Nc3ncc(C(C)C)cc3C(F)(F)F)n2)nc1 [Compound 165, 3-(5-isopropoxy-pyridin-2-yl)-N-(5-isopropyl-3-(trifluoromethyl)pyridin-2-yl)-1,2,4-thiadiazol-5-amine]		< 200	
FC(F)(F)c1ccc(Nc2nc(-c3cc(OC4CCCCC4)ccn3)ns2)nc1 [Compound 213, 3-(4-(cyclo-hexyloxy)pyridin-2-yl)-N-(5-(trifluoromethyl)pyridin-2-yl)-1,2,4-thiadiazol-5-amine]	< 200		
CC(=O)N(C)c1cnc(Nc2nc(-c3ccc(OC(C)C)cn3)ns2)c(C)c1 [Compound 297, N-(6-(3-(5-isopropoxypyridin-2-yl)-1,2,4-thiadiazol-5-ylamino)-5-methylpyridin-3-yl)-N-methylacetamide]	200 to 500		
CC(C)Oc1cnc(-c2nsc(Nc3ncccc3S(=O)(=O)N(C)C)n2)cc1C(F)(F)F [Compound 320, 2-(3-(5-isopropoxy-4-(trifluoromethyl)pyridin-2-yl)-1,2,4-thiadiazol-5-ylamino)-N,N-dimethyl-pyridine-3-sulfonamide]	500 to 5000		
CC(=O)Nc1cccnc1Nc1nc(-c2ccc(OC(C)C)cn2)ns1 [Compound 161, N-(2-(3-(5-isopropoxy-pyridin-2-yl)-1,2,4-thiadiazol-5-ylamino)pyridin-3-yl)acetamide]		500 to 5000	
CN1Cc2ccnc(-c3nsc(Nc4ncccc4N(C)C)n3)c2C1 [Compound 163, N3,N3-dimethyl-N2-(3-(2-methyl-2,3-dihydro-1H-pyrrolo[3,4-c]pyridin-4-yl)-1,2,4-thia-diazol-5-yl)pyridine-2,3-diamine]		< 200	
CC(=O)N(C)c1cnc(Nc2nc(-c3cc4c(cn3)N(C(C)C)CC4)ns2)c(C(F)(F)F)c1 [Compound 299, N-(6-(3-(1-isopropyl-2,3-dihydro-1H-pyrrolo[2,3-c]pyridin-5-yl)-1,2,4-thiadiazol-5-ylamino)-5-(trifluoromethyl)pyridin-3-yl)-N-methylacetamide]	< 200		
CC(C)Oc1cnc(-c2nsc(Nc3ncccc3C(C)C)n2)cc1C(=O)N(C)C [Compound 193, 5-isopropoxy-2-(5-(3-isopropylpyridin-2-ylamino)-1,2,4-thiadiazol-3-yl)-N,N-dimethy-lisonicotinamide]		200 to 500	
CN(C)c1cccnc1Nc1nc(-c2ccc(F)cn2)ns1 [Compound 121, N2-(3-(5-fluoro-pyridin-2-yl)-1,2,4-thiadiazol-5-yl)-N3,N3-dimethylpyridine-2,3-diamine]		< 200	
CC(C)Oc1ccc(-c2nsc(Nc3ncccc3N(C)C)n2)nn1 [Compound 155, N2-(3-(6-isopropoxy-pyridazin-3-yl)-1,2,4-thiadiazol-5-yl)-N3,N3-dimethyl-pyridine-2,3-diamine]		500 to 5000	
CC(=O)N(C)c1cc(C(F)(F)F)cnc1Nc1nc(-c2cc3c(cn2)CN(C(C)C)C3)ns1 [Compound 311, N-(2-(3-(2-isopropyl-2,3-dihydro-1H-pyrrolo[3,4-c]pyridin-6-yl)-1,2,4-thiadiazol-5-ylamino)-5-(trifluoromethyl)pyridin-3-yl)-N-methylacetamide]	< 200		
COc1ccc(-c2noc(Nc3cc(OC4CCOCC4)ccn3)n2)nc1 [Compound 47, 3-(5-methoxy-pyridin-2-yl)-N-(4-(tetrahydro-2H-pyran-4-yloxy)pyridin-2-yl)-1,2,4-oxadiazol-5-amine]		500 to 5000	
